Patent US20240336654A1, “ANTIMICROBIAL PEPTIDOMIMETICS” (SPEXIS AG, priority 2021, published 2024)
Where a SMILES comes first, the peptide text is derived from it. Bridges are numbered along the chain shown (N, C = ends). [ ]: non-standard residue; d: D form. dDab(iPr) = CC(C)NCC[C@@H](N)C(=O)O; Hyp = O=C(O)[C@@H]1C[C@@H](O)CN1; dCit = NC(=O)NCCC[C@@H](N)C(=O)O; Agb = N=C(N)NCC[C@H](N)C(=O)O; Pen = CC(C)(S)[C@H](N)C(=O)O; dDab = NCC[C@@H](N)C(=O)O; Dab = NCC[C@H](N)C(=O)O

Tests used:
Type in all cases: cell-based
[1] = tested on: Klebsiella pneumoniae SSI3010; settings: SSI3010
In short: (§1)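 MICs were determined by CLSI broth microdilution in cation-adjusted Mueller-Hinton II broth with about 5×10^5 CFU/mL inoculum. Peptides were tested in two-fold serial dilutions with 0.002% polysorbate 80 final. MIC in μg/mL is the lowest concentration with no visible growth after 18-20 h at 35 °C.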

[2] = tested on: Escherichia coli ATCC 25922; settings: ATCC 25922
In short: as §1

[3] = tested on: Escherichia coli MCR-1 Af 45; settings: MCR-1 Af 45
In short: as §1

[4] = tested on: human red blood cells (hRBC); settings: red cells of human, 1 h, 200 μg/mL
In short: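 Percent hemolysis derived from OD540 of supernatants relative to full lysis by 2.5% Triton X-100 (PBS baseline). Washed fresh human erythrocytes (20% v/v) were exposed to 200 μg/mL peptide for 1 h at 37 °C with shaking.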

Structure (SMILES)	Klebsiella pneumoniae SSI3010 MIC [1] [µg/mL]	Escherichia coli ATCC 25922 MIC [2] [µg/mL]	Escherichia coli MCR-1 Af45 MIC [3] [µg/mL]	Hemolysis at 0.2 g/L [4] [%]
CC[C@H](C)[C@H](NC(=O)[C@@H]1C[C@@H](O)CN1C(=O)[C@@H](N)C(C)C)C(=O)N[C@@H]1C(=O)N[C@@H](Cc2ccc(O)cc2)C(=O)N[C@@H](CO)C(=O)N[C@@H](CC(N)=O)C(=O)N[C@@H](CCCNC(=N)N)C(=O)N[C@@H](CC(N)=O)C(=O)N[C@@H]([C@@H](C)O)C(=O)N[C@H](CCN)C(=O)N[C@@H](CCCCN)C(=O)N[C@@H](CCN)C(=O)N[C@@H](CCN)C(=O)N[C@H](C(=O)N[C@@H](Cc2ccc(O)cc2)C(=O)O)CSSC1(C)C [Example 28, Val-Hyp-Ile-Pen-Tyr-Ser-Asn-Arg-Asn-Thr-^DDab-Lys-Dab-Dab-Cys-Tyr] (H-V[Hyp]I[Pen]YSNRNT[dDab]K[Dab][Dab]CY-OH; disulfide 4-15)	0.5	0.25	0.25	<1
CC[C@H](C)[C@H](NC(=O)[C@@H]1C[C@@H](O)CN1C(=O)[C@@H](N)C(C)C)C(=O)N[C@@H]1C(=O)N[C@@H](Cc2ccc(O)cc2)C(=O)N[C@@H](CO)C(=O)N[C@@H](CC(N)=O)C(=O)N[C@@H](CCCNC(=N)N)C(=O)N[C@@H](CO)C(=O)N[C@@H]([C@@H](C)O)C(=O)N[C@H](CCN)C(=O)N[C@@H](CCCCN)C(=O)N[C@@H](CCN)C(=O)N[C@@H](CCN)C(=O)N[C@H](C(=O)N[C@@H](Cc2ccc(O)cc2)C(=O)O)CSSC1(C)C [Example 29, Val-Hyp-Ile-Pen-Tyr-Ser-Asn-Arg-Ser-Thr-^DDab-Lys-Dab-Dab-Cys-Tyr] (H-V[Hyp]I[Pen]YSNRST[dDab]K[Dab][Dab]CY-OH; disulfide 4-15)	0.5	0.25	0.125	<1
CC[C@H](C)[C@H](NC(=O)[C@@H]1C[C@@H](O)CN1C(=O)[C@@H](N)C(C)C)C(=O)N[C@@H]1C(=O)N[C@@H](Cc2ccc(O)cc2)C(=O)N[C@@H](CO)C(=O)N[C@@H](CC(N)=O)C(=O)N[C@@H](CCCNC(=N)N)C(=O)N[C@@H](CCNC(=N)N)C(=O)N[C@@H]([C@@H](C)O)C(=O)N[C@H](CCN)C(=O)N[C@@H](CCCCN)C(=O)N[C@@H](CCN)C(=O)N[C@@H](CCN)C(=O)N[C@H](C(=O)N[C@@H](Cc2ccc(O)cc2)C(=O)O)CSSC1(C)C [Example 30, Val-Hyp-Ile-Pen-Tyr-Ser-Asn-Arg-Agb-Thr-^DDab-Lys-Dab-Dab-Cys-Tyr] (H-V[Hyp]I[Pen]YSNR[Agb]T[dDab]K[Dab][Dab]CY-OH; disulfide 4-15)	0.125	0.125	0.0625	<1
CC[C@H](C)[C@H](NC(=O)[C@@H]1C[C@@H](O)CN1C(=O)[C@@H](N)C(C)C)C(=O)N[C@@H]1C(=O)N[C@@H](Cc2ccc(O)cc2)C(=O)N[C@@H](CO)C(=O)N[C@@H](CC(N)=O)C(=O)N[C@@H](CCCNC(=N)N)C(=O)N[C@@H](CCN)C(=O)N[C@@H](CC(N)=O)C(=O)N[C@H](CCN)C(=O)N[C@@H](CCCCN)C(=O)N[C@@H](CCN)C(=O)N[C@@H](CCN)C(=O)N[C@H](C(=O)N[C@@H](Cc2ccc(O)cc2)C(=O)O)CSSC1(C)C [Example 31, Val-Hyp-Ile-Pen-Tyr-Ser-Asn-Arg-Dab-Asn-^DDab-Lys-Dab-Dab-Cys-Tyr] (H-V[Hyp]I[Pen]YSNR[Dab]N[dDab]K[Dab][Dab]CY-OH; disulfide 4-15)	0.25	0.125	0.125	<1
CC[C@H](C)[C@H](NC(=O)[C@@H]1C[C@@H](O)CN1C(=O)[C@@H](N)C(C)C)C(=O)N[C@@H]1C(=O)N[C@@H](Cc2ccc(O)cc2)C(=O)N[C@@H](CCN)C(=O)N[C@@H](CC(N)=O)C(=O)N[C@@H](CCCNC(=N)N)C(=O)N[C@@H](CCN)C(=O)N[C@@H](CO)C(=O)N[C@H](CCN)C(=O)N[C@@H](CCCCN)C(=O)N[C@@H](CCN)C(=O)N[C@@H](CO)C(=O)N[C@H](C(=O)N[C@@H](Cc2ccc(O)cc2)C(=O)O)CSSC1(C)C [Example 32, Val-Hyp-Ile-Pen-Tyr-Dab-Asn-Arg-Dab-Ser-^DDab-Lys-Dab-Ser-Cys-Tyr] (H-V[Hyp]I[Pen]Y[Dab]NR[Dab]S[dDab]K[Dab]SCY-OH; disulfide 4-15)	0.5	1	0.5	<1
CC[C@H](C)[C@H](NC(=O)[C@@H]1C[C@@H](O)CN1C(=O)[C@@H](N)C(C)C)C(=O)N[C@@H]1C(=O)N[C@@H](Cc2ccc(O)cc2)C(=O)N[C@@H](CO)C(=O)N[C@@H](CC(N)=O)C(=O)N[C@@H](CCCNC(=N)N)C(=O)N[C@@H](CCN)C(=O)N[C@@H](CO)C(=O)N[C@H](CCN)C(=O)N[C@@H](CCCCN)C(=O)N[C@@H](CCN)C(=O)N[C@@H](CCN)C(=O)N[C@H](C(=O)N[C@@H](Cc2ccc(O)cc2)C(=O)O)CSSC1(C)C [Example 33, Val-Hyp-Ile-Pen-Tyr-Ser-Asn-Arg-Dab-Ser-^DDab-Lys-Dab-Dab-Cys-Tyr] (H-V[Hyp]I[Pen]YSNR[Dab]S[dDab]K[Dab][Dab]CY-OH; disulfide 4-15)	0.125	0.125	0.125	<1
CC[C@H](C)[C@H](NC(=O)[C@@H]1C[C@@H](O)CN1C(=O)[C@@H](N)C(C)C)C(=O)N[C@@H]1C(=O)N[C@@H](Cc2ccc(O)cc2)C(=O)N[C@@H](CO)C(=O)N[C@@H](CC(N)=O)C(=O)N[C@@H](CCCNC(=N)N)C(=O)N[C@@H](CCN)C(=O)N[C@@H]([C@@H](C)O)C(=O)N[C@H](CCCCN)C(=O)N[C@@H](CCCCN)C(=O)N[C@@H](CCN)C(=O)N[C@@H](CCN)C(=O)N[C@H](C(=O)N[C@@H](Cc2ccc(O)cc2)C(=O)O)CSSC1(C)C [Example 35, Val-Hyp-Ile-Pen-Tyr-Ser-Asn-Arg-Dab-Thr-^DLys-Lys-Dab-Dab-Cys-Tyr] (H-V[Hyp]I[Pen]YSNR[Dab]T[dK]K[Dab][Dab]CY-OH; disulfide 4-15)	0.25	0.125	0.0625	<1
CC[C@H](C)[C@H](NC(=O)[C@@H]1C[C@@H](O)CN1C(=O)[C@@H](N)C(C)C)C(=O)N[C@@H]1C(=O)N[C@@H](Cc2ccc(O)cc2)C(=O)N[C@@H](CO)C(=O)N[C@@H](CC(N)=O)C(=O)N[C@@H](CCCNC(=N)N)C(=O)N[C@@H](CCN)C(=O)N[C@@H]([C@@H](C)O)C(=O)N[C@H](CCCNC(=N)N)C(=O)N[C@@H](CCCCN)C(=O)N[C@@H](CCN)C(=O)N[C@@H](CCN)C(=O)N[C@H](C(=O)N[C@@H](Cc2ccc(O)cc2)C(=O)O)CSSC1(C)C [Example 36, Val-Hyp-Ile-Pen-Tyr-Ser-Asn-Arg-Dab-Thr-^DArg-Lys-Dab-Dab-Cys-Tyr] (H-V[Hyp]I[Pen]YSNR[Dab]T[dR]K[Dab][Dab]CY-OH; disulfide 4-15)	0.125	0.125	0.125	<1
CC[C@H](C)[C@H](NC(=O)[C@@H]1C[C@@H](O)CN1C(=O)[C@@H](N)C(C)C)C(=O)N[C@@H]1C(=O)N[C@@H](Cc2ccc(O)cc2)C(=O)N[C@@H](CO)C(=O)N[C@@H](CC(N)=O)C(=O)N[C@@H](CCCNC(=N)N)C(=O)N[C@@H](CCN)C(=O)N[C@@H]([C@@H](C)O)C(=O)N[C@H](CCCNC(N)=O)C(=O)N[C@@H](CCCCN)C(=O)N[C@@H](CCN)C(=O)N[C@@H](CCN)C(=O)N[C@H](C(=O)N[C@@H](Cc2ccc(O)cc2)C(=O)O)CSSC1(C)C [Example 37, Val-Hyp-Ile-Pen-Tyr-Ser-Asn-Arg-Dab-Thr-^DCit-Lys-Dab-Dab-Cys-Tyr] (H-V[Hyp]I[Pen]YSNR[Dab]T[dCit]K[Dab][Dab]CY-OH; disulfide 4-15)	0.5	0.5	0.5	<1
CC[C@H](C)[C@H](NC(=O)[C@@H]1C[C@@H](O)CN1C(=O)[C@@H](N)C(C)C)C(=O)N[C@@H]1C(=O)N[C@@H](Cc2ccc(O)cc2)C(=O)N[C@@H](CO)C(=O)N[C@@H](CC(N)=O)C(=O)N[C@@H](CCCNC(=N)N)C(=O)N[C@@H](CCN)C(=O)N[C@@H]([C@@H](C)O)C(=O)N[C@H](CCNC(C)C)C(=O)N[C@@H](CCCCN)C(=O)N[C@@H](CCN)C(=O)N[C@@H](CCN)C(=O)N[C@H](C(=O)N[C@@H](Cc2ccc(O)cc2)C(=O)O)CSSC1(C)C [Example 38, Val-Hyp-Ile-Pen-Tyr-Ser-Asn-Arg-Dab-Thr-^DDab(iPr)-Lys-Dab-Dab-Cys-Tyr] (H-V[Hyp]I[Pen]YSNR[Dab]T[dDab(iPr)]K[Dab][Dab]CY-OH; disulfide 4-15)	0.5	0.125	0.125	<1
CC[C@H](C)[C@H](NC(=O)[C@@H]1C[C@@H](O)CN1C(=O)[C@@H](N)C(C)C)C(=O)N[C@@H]1C(=O)N[C@@H](Cc2ccc(O)cc2)C(=O)N[C@@H](CO)C(=O)N[C@@H](CC(N)=O)C(=O)N[C@@H](CCCNC(=N)N)C(=O)N[C@@H](CCN)C(=O)N[C@@H]([C@@H](C)O)C(=O)N[C@H](CCN)C(=O)N[C@@H](C)C(=O)N[C@@H](CCN)C(=O)N[C@@H](CCN)C(=O)N[C@H](C(=O)N[C@@H](Cc2ccc(O)cc2)C(=O)O)CSSC1(C)C [Example 39, Val-Hyp-Ile-Pen-Tyr-Ser-Asn-Arg-Dab-Thr-^DDab-Ala-Dab-Dab-Cys-Tyr] (H-V[Hyp]I[Pen]YSNR[Dab]T[dDab]A[Dab][Dab]CY-OH; disulfide 4-15)	0.5	0.25	0.25	<1
